The values below come from patent US20240277739A1, “NUTRITONAL COMPOSITIONS FOR GUT BARRIER FUNCTION” (N.V. Nutricia, priority 2021, published 2024).

Test [1] concerns Caco-2 cell monolayer. Description: TEER of Caco-2 monolayer, DON-induced impairment of barrier integrity. The test is classed as cell-based, human. To be noted: for TEER in the presence of DON (FIG. 3), single ingredient, in words: DON 4.2 μM, 0.75 wt % beta3′-GL or 600 μM fatty acid alone. As to the method: (§1) beta1,3′-galactosyl-lactose (beta3′-GL), beta1,4′-galactosyllactose (beta4′-GL) and beta1,6′-galactosyl-lactose (beta6′-GL) were obtained from Carbosynth (Berkshire, UK), alpha1,3′-galactosyl-lactose (alpha3′-GL) was obtained from Elicityl (Crolles, France). Purified deoxydivalenol (DON) (D0156; Sigma Aldrich, St Luis, MO, USA) was dissolved in pure ethanol and stored at −20° C. Human epithelial colorectal adenocarcinoma (Caco-2) cells were obtained from American Type Tissue Collection (Code HTB-37) (Manasse, VA, USA, passage 90-102).
(§2) Caco-2 cells were used according to established methods. In brief: cells were cultured in Dulbecco's modified Eagle medium (DMEM) and seeded at a density of 0.3×10^5 cells into 0.3 cm^2 high pore density (0.4 μm) inserts with a polyethylene terephthalate membrane (BD Biosciences, Franklin Lakes, NJ, USA) placed in a 24-well plate. The Caco-2 cells were maintained in a humidified atmosphere of 95% air and 5% CO2 at 37° C. After 17-19 days of culturing, a confluent monolayer was obtained with a mean Transepithelial electrical resistance (TEER) exceeding 400 Ω cm^2 measured by a Millicell-Electrical Resistance System voltohm-meter (Millipore, Temecula, CA, USA).
(§3) Caco-2 cell monolayers were thus grown in a transwell system, which is a model for intestinal barrier function. The monolayers were pretreated for 24 h with different GLs, including beta3′-GL, alpha3′-GL, beta4′-GL and beta6′-GL in a concentration of 0.75 wt. % of the GL, before being exposed to the fungal toxin deoxynivalenol (DON), which is a trigger and model compound to impair intestinal barrier. DON was diluted to a final concentration of 4.2 μM in complete cell medium and added to the apical side as well as to the basolateral side of the transwell inserts. […] Incubation with DON was 24 h.
(§4) Measurements of the transepithelial electrical resistance (TEER) and lucifer yellow (LY) permeability were conducted to investigate barrier integrity. For TEER measurements a Millicel-ERS voltohmmeter connected to a pair of chopsticks electrodes was used to measure the TEER values. Results are expressed as a percentage of the initial value. For paracellular tracer flux assay the membrane impermeable lucifer yellow (LY) (Sigma, St Luis, MO, USA) was added in a concentration of 16 μg/ml to the apical compartment in the transwell plate for 4 h, and the paracellular flux was determined by measuring the fluorescence intensity in the basolateral compartment with a spectrophotofluorimeter (FLUOstar Optima, BMG Labtech, Offenburg, Germany) set at excitation and emission wavelengths of 410 and 520 nm, respectively. Release of interleukin-8 (IL-8 or CXCL8), which is a typical marker for inflammation, was quantified in the medium of the apical side and the basolateral side of the Caco-2 transwell inserts in response to the treatments. CXCL8 concentrations were measured by using the human IL-8 ELISA assay (BD Biosciences, Pharmingem, San Diego, CA, USA) according to manufacturer's instructions. For more details on materials and methods see Akbari et al, 2016, Eur J Nutr. 56(5):1919-1930.
(§5) For TOS concentrations of 0.25 wt. % (TOS 0.25) and 0.5 wt. % (TOS 0.5) were tested.
(§6) Barrier function experiments were performed using the method as described in example 3. Oleic acid (OA) and palmitic acid were obtained from Sigma-Aldrich. Palmitic acid was coupled to fatty acid free Bovine Serum Albumin (BSA, Roche) to make a 6:1 BSA-palmitic acid conjugate solution, which is needed to dissolve palmitic acid in culture medium and therefore common practice in the field (reference Alsabeeh et al, Biochim. Biophys Acta. 2018 February; 1863(2): 143-151). Throughout this document this conjugate solution will be abbreviated as PA.

Test [2] concerns T84 human intestinal epithelial cells. The experiment in a line: TEER of T84 monolayers pre-incubated with fatty acids, SCFA mix or combination. The test is classed as cell-based. To be noted: for % TEER (24 h): relative to medium control at 24 h. The text has this: The effect of palmitic acid and oleic acid combined with a mixture of short chain fatty acids (SCFA mix) having a concentration profile that is typical for fermentation of a mixture of galacto-oligosaccharides (GOS) derived from VivinalGOS and long chain fructo-oligosaccharides (RaftilineHP) in a ratio of 9/1 (w/w) on barrier permeability was investigated. The concentration profiles of SCFA is as disclosed in Example 3 of EP2100520 (incorporated by reference herein), specifically as shown in FIG. 3A of EP2100520 (incorporated by reference herein) (see second bar in FIG. 3A), i.e. about 75% being acetic acid. Oleic acid and palmitic acid were obtained from Sigma-Aldrich and coupled to fatty acid free Bovine Serum Albumin (BSA, Sigma-Aldrich) prior to cell treatment.
T84 human intestinal epithelial cells are commonly used to study intestinal barrier integrity in vitro. T84 cells (ATCC, USA) were cultured on 12 mm transwell inserts (0.4 μm, Corning Costrar, USA) in DMEM-F12 glutamax with penicillin-streptomycin (100 IU/ml), supplemented with […]. T84 cells were used 14 days after reaching confluence. Monolayers of T84 cultured on transwell filters were pre-incubated with fatty acids, SCFA mix or a combination thereof for a period of 24 hours.
Epithelial barrier integrity was assessed by measuring transepithelial resistance (TEER; Ω×cm^2) with the epithelial volt-ohm meter (Millicell ERS-2; Millipore USA). TEER measurements were performed at 0, 24, h of incubation. TEER values of the fatty acids (i.e. SCFA, OA, PA) are expressed relative to the medium control TEER values at 24 h.

Test [3] has as its system Caco-2 cell monolayer. The experiment in a line: TEER of Caco-2 monolayer with OA, PA, beta3′-GL and combinations (no DON). The test is classed as cell-based, human. As to the method: as §2, §4, §6
Tables 5a and 5b show the effects of OA and PA and beta3′-GL and its combinations on the intestinal barrier function as measured by TEER.

Test [4] concerns interleukin-8 (IL-8 or CXCL8) release. The experiment in a line: DON-induced IL-8 (CXCL8) release from Caco-2 cells, ELISA. The test is classed as cell-based, human. The conditions noted are these: DON 4.2 μM alone. As to the method: as §1
Caco-2 cells were used according to established methods. […] After 17-19 days of culturing, a confluent monolayer was obtained with a mean Transepithelial electrical resistance (TEER) exceeding 400 Ω cm^2 measured by a Millicell-Electrical Resistance System voltohm-meter (Millipore, Temecula, CA, USA). […]
Measurements of the transepithelial electrical resistance (TEER) and lucifer yellow (LY) permeability were conducted to investigate barrier integrity. […] Results are expressed as a percentage of the initial value. […] Release of interleukin-8 (IL-8 or CXCL8), which is a typical marker for inflammation, was quantified in the medium of the apical side and the basolateral side of the Caco-2 transwell inserts in response to the treatments. […]
In general terms: In an ELISA, binding on a coated surface is turned into a signal by an enzyme label.

Test [5] relates to Caco-2 cell monolayer. The experiment in a line: Lucifer yellow (LY) paracellular flux across Caco-2 monolayer, DON-induced impairment. The test is classed as cell-based, human. The conditions noted are these: 0.75 wt. % GL, 24 h pretreatment, then DON 4.2 μM 24 h. As to the method: as §1, §2, §3, §4, §5
Barrier function experiments were performed using the method as described in example 3. Oleic acid (OA) and palmitic acid were obtained from Sigma-Aldrich. […]

For test [6], the system named is infant microbiota (pooled fecal samples from 3 healthy infants). The experiment in a line: Fermentation of galactosyllactoses by infant fecal microbiota (i-Screen anaerobic colon model). To be noted: for acetate / lactate: t = 24 h. Set-up: species or system human; acetate / lactate: unit not given here. As to the method:
The effect of pure 3′-GL, 4′-GL, and 6′-GL of the three galactosyllactoses functionality (pH, lactate, acetate levels) was evaluated. Beta1,3-galactosyllactose (beat3′-GL), beta1,4-galactosyllactose (beta4′-GL) and beta1,6-galactosyllactose (beta6′-GL) were obtained from Carbosynth (Berkshire, UK) Measurements of all parameters were performed after a 24-hour incubation in the high-throughput anaerobic colon model, i-Screen™ (TNO, Zeist, the Netherlands).
Fecal samples from 3 healthy infants (aged 1-4 months) were pooled and activated for 4 hours in a modified standard ileal efflux medium (pH 6.0) at 37° C. under anaerobic conditions. Next, each GL was added. After an incubation for 24 hours at 37° C. under anaerobic conditions, samples were collected for further analysis and pH levels were immediately measured using a pH meter MultiCal pH 526 (WTW, Weilheim, Germany). The samples were centrifuged at 4,000 g for 5 minutes and the supernatant was filter sterilized using 0.45 μm filters. For the SCFA analysis, a mixture of formic acid ([…]), methanol and 2-ethyl butyric acid (internal standard, 2 mg/ml in methanol) was added to the filtered supernatant. A 3 μl sample with a split ratio of 75.0 was injected on a GC-column (ZB-5HT inferno, ID 0.52 mm, film thickness 0.10 μm; Zebron; phenomenex, USA) in a Shimadzu GC-2014 gas chromatograph. The levels of acetic acid and lactic acid were measured. For lactate analysis, the total of D- and L-lactate was determined the filtered supernatant by the Arena 20XL analyser. This assay is based on the D- and L-lactic acid assay kits (Thermo Fisher Scientific oy, www.e-labeling.eu/TSF9843061FU and www.e-labeling.eu/TSF9843081FU). The assay was performed following the manufacturer's instructions with one adaptation: the reagents DLac RI and LLac RI from the two kits were mixed in a 1:1 ratio to detect both L and D isomers of lactic acid simultaneously. Calibration of the assay was done with an ‘Acid combination standard’ (order number 984382) containing both L-lactic acid and D-lactic acid.

Take `CCCCCCCC/C=C\CCCCCCCC(=O)O` [OA, oleic acid]: in test [1], the “TEER in the presence of DON (FIG. 3), single ingredient, in words” value is recorded as “somewhat higher than in the control”. Further, the “% TEER (24 h)” value in test [2] (fatty acid 50 μM + SCFA mix 40 mM) was found to be 210%; in test [2] (fatty acid 50 μM, SCFA mix 0 mM), 134%; in test [3] (Table 5a: oleic acid 600 μM, beta3′GL 0, relative to the medium control), 138%. Besides, in test [2] (fatty acid 50 μM in combination with SCFA 40 mM, 24 h), the “increase of gut barrier function (TEER) versus control” value was 110%. Besides, in test [2] (fatty acid 50 μM plus SCFA 40 mM, additive), the “increase of gut barrier function expected for an additive effect” value is 94%. Besides, the “change of gut barrier function (TEER) versus control” value in test [2] (single ingredient: fatty acid 50 μM or SCFA mix 40 mM, 24 h) was determined as 34%. Further, in test [3] (100 μM fatty acid, data not shown), the “effect on TEER at 100 μM fatty acid, in words” value was “improving effect on TEER was also observed”.

As for `CC1=C[C@H]2O[C@@H]3[C@H](O)C[C@](C)([C@@]2(CO)[C@H](O)C1=O)[C@]31CO1` [DON, deoxynivalenol], in test [4], the “CXCL8 (IL-8) release (FIG. 2), in words” value is listed as “increased CXCL8 (IL-8) release”.

“Gal (beta 1-3)-Gal (beta 1-4)-Glc [beta3′-GL]”: in test [1] (0.75 wt. % GL, 24 h pretreatment, then DON 4.2 μM 24 h), the “effect on DON-induced loss of epithelial barrier integrity, TEER (FIGS. 1A, 1B), in words” value is given as “increased TEER values”. The “TEER in the presence of DON (FIG. 3), single ingredient, in words” value in test [1] is “somewhat higher than in the control”. Besides, the “beta3′-GL concentration at which the effect on gut barrier function is observed” value in test [1] (beta3′-GL content of the TOS tested, DON model) is on record as “lower than 0.17 wt. %”. Also, in test [5], the “effect on DON-induced loss of epithelial barrier integrity, LY flux (FIGS. 1C, 1D), in words” value was “reduction in the DON-affected LY flux”. Besides, the acetate in test [6] (3 mg/ml) is 61.3; in test [6] (9 mg/ml), 77.1. Also, the lactate turned out to be 0.0 in test [6] (3 mg/ml) and 1.3 in test [6] (9 mg/ml). In addition, in test [6] (24 h incubation), the “pH, acetate and lactate after fermentation, in words” value was “the highest levels of acetate and lactate and the lowest pH level”. The “% TEER (24 h)” value was determined as 117% in test [3] (Table 5a: beta3′GL 0.75 w/v %, oleic acid 0, relative to the medium control) and 129% in test [3] (Table 5b: 3′GL 0.75, palmitic acid 0).
